Experimental data reported in paper PMC6116703, “Ethenesulfonyl fluoride derivatives as telomerase inhibitors: structure-based design, SAR, and anticancer evaluation in vitro” (Journal of Enzyme Inhibition and Medicinal Chemistry, 2018).
Where two headings read alike, the source gives them in different places.

Legend:
[1] = tested on: human melanoma cell A375; assay: Cell proliferation (MTT) assay, A375; type: cell-based
Protocol: (§1) The antiproliferative activities evaluation was conducted by using a modified procedure as described in the literature. Briefly, target tumour cells were grown to log phase in RPMI 1640 medium supplemented with 10% fetal bovine serum. After diluting to 3 × 10^4 cells mL^−1 with the complete medium, 100 µL of the obtained cell suspension was added to each well of 96-well culture plates. The subsequent incubation was performed at 37 °C, 5% CO2 atmosphere for 24 h before subjecting to antiproliferation assessment. The tested samples at pre-set concentrations were added to six wells with Doxorubicin (AMD) co-assayed as a positive reference. After 48 h of exposure period, 25 µL of PBS containing 2.5 mg·mL^−1 of MTT was added to each well. After 4 h, the medium was replaced by 150 µL DMSO to dissolve the purple formazan crystals produced. The absorbance at 570 nm of each well was measured using an ELISA plate reader. The data represented the mean of three experiments in triplicate and were expressed as means ± SD using Student’s test.

[2] = tested on: human breast cancer cell MDA-MB-231; assay: Cell proliferation (MTT) assay, MDA-MB-231; type: cell-based
Protocol: as §1

[3] = tested on: human hepatoma cell SMMC-7721; assay: Cell proliferation (MTT) assay, SMMC-7721; type: cell-based; details: read-out: IC50 SMMC-7721
Protocol: as §1

[4] = tested on: human gastric cancer cells SGC-7901; assay: Cell proliferation (MTT) assay, SGC-7901; type: cell-based; details: read-out: IC50 SGC-7901
Protocol: as §1

[5] = tested on: human gastric cancer cells MGC-803; assay: Cell proliferation (MTT) assay, MGC-803; type: cell-based; details: Homo sapiens, read-out: IC50 MGC-803
Protocol: as §1

[6] = tested on: human normal liver cell (L-02); assay: Proliferative inhibition assay of human normal cell L-02 (MTT); type: cell-based; details: Homo sapiens, normal liver cells
Protocol: as §1
(§2) In order to determine the selective cancer cell toxicity of some title compounds. We subsequently conducted a proliferative inhibition assay with human normal liver cell (L-02) and gastric mucosa cell (GES-1).

[7] = tested on: gastric mucosa cell (GES-1); assay: Proliferative inhibition assay of human normal cell GES-1 (MTT); type: cell-based; details: Homo sapiens, GES1, normal gastric mucosa cells
Protocol: as §1, §2

[8] = molecular target: T1, telomerase (Homo sapiens, UniProt O14746); assay: Telomerase activity TRAP-PCR-ELISA assay (A375 cell extract); type: biochemical
T1 construct: endogenous in cells; host or cells: A375 human melanoma cells
T1 sequence (O14746 whole entry): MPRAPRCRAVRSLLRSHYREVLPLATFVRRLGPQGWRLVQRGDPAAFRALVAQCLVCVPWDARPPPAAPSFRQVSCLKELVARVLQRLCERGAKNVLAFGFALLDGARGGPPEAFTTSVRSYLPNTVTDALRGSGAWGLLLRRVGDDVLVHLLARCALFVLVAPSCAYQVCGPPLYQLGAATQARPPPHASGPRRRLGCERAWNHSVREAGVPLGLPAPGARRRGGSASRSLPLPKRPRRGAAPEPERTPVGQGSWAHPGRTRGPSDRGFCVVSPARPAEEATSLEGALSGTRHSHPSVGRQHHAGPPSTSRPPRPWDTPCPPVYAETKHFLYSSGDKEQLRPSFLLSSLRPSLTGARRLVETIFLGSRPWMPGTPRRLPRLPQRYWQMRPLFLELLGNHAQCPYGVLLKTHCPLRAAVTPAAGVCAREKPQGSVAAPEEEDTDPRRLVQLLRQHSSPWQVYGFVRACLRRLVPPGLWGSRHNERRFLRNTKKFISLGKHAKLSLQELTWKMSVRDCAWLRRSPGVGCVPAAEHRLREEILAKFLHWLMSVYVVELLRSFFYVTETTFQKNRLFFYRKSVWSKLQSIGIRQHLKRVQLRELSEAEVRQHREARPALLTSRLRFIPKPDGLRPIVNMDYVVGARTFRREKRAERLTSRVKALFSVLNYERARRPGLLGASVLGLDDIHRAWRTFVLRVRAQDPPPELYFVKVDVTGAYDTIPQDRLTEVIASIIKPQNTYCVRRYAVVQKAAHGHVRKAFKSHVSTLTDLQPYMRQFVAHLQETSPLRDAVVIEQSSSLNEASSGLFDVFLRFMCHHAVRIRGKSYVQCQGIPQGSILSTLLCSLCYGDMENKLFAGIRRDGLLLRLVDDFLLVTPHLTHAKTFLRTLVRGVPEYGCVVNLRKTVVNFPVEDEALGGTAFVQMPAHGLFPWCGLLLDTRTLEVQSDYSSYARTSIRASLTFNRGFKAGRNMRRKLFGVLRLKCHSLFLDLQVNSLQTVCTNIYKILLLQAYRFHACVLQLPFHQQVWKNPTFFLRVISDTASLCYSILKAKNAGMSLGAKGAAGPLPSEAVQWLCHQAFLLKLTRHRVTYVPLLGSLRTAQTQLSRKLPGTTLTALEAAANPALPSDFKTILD
Protocol: Thirty-six compounds were tested in a search for inhibitors of telomerase activity using the TRAP-PCR-ELISA assay. In detail, the A375 cells were firstly maintained in RPMI 1640 buffer (Hyclone, Miami, FL), supplemented with 10% fetal bovineserum (GIBCO, New York, NY), streptomycin (0.1 mg/mL) and penicillin (100 IU/mL) at 37 °C in a humidified atmosphere containing 5% CO2. After trypsinisation, 5 × 10^4 cultured cells in logarithmic growth were seeded into T25 flasks (Corning, New York, NY) and cultured to allow to adherence. […] After 24 h treatment, the cells were harvested by cell scraper orderly followed by washing once with PBS. The cells were lysed in 150 µL RIPA cell lysis buffer (Santa Cruz, Santa Cruz, CA), and incubated on ice for 30 min. The cellular supernatants were obtained via centrifugation at 12,000g for 20 min at 4 °C and stored at –80 °C. The TRAP-PCR-ELISA assay was performed using a telomerase detection kit (Roche, Basel, Switzerland) according to the manufacturer’s protocol. In brief, 2 µL of cell extracts were mixed with 48 µL TRAP reaction mixtures. TRAP primers and Taq polymerase are incubated at 25 °C for 30 min. PCR was then initiated at 94 °C, 120 s for predenaturation and performed using 35 cycles each consisting of 94 °C for 30 s, 50 °C for 30 s, 72 °C for 90 s. Then 20 µL of PCR products were hybridised to a digoxigenin (DIG)-labelled telomeric repeat specific detection probe. And the PCR products were immobilised via the biotin-labelled primer to a streptavidin-coated microtiter plate subsequently. The immobilised DNA fragments were detected with a peroxidase-conjugated anti-DIG antibody and visualised following the addition of the stop regent. The microtitre plate was assessed on TECAN Infinite M200 microplate reader (Mannedorf, Switzerland) at a wavelength of 490 nm, and the final value were presented as mean ± SD[23].

[9] = Homo sapiens, A-375, 48 h, read-out: IC50 A375, antiproliferative, MTT, 48 h exposure
[10] = Homo sapiens, MDA-MB-231, 48 h, read-out: IC50 MDA-MB-231, antiproliferative, MTT, 48 h exposure
[11] = IC50 inhibitory activity against telomerase, TRAP-PCR-ELISA, A375 cells, 24 h treatment
[12] = antiproliferative, MTT, 48 h exposure, read-out: IC50 A375
[13] = antiproliferative, MTT, 48 h exposure, read-out: IC50 MDA-MB-231
[14] = antiproliferative, MTT, 48 h exposure

| SMILES | IC50 [1, 9] [µM] | IC50 [2, 10] [µM] | IC50 [6] [µM] | IC50 [7] [µM] | IC50 [8, 11] [µM] | IC50 ([3]; Homo sapiens, SMMC-7721, 48 h) [µM] | other results |
| --- | --- | --- | --- | --- | --- | --- | --- |
| COc1cccc2c1C(=O)c1c(O)c3c(c(O)c1C2=O)C[C@@](O)(C(=O)CO)C[C@@H]3O[C@H]1C[C@H](N)[C@H](O)[C@H](C)O1 [AMD, Doxorubicin, reference compound] |  |  |  |  |  |  | IC50 ([1]; Homo sapiens, A-375, 48 h, antiproliferative, MTT, 48 h exposure, read-out: IC50 A375): 0.52 ± 0.14 µM; IC50 ([2]; Homo sapiens, MDA-MB-231, 48 h, antiproliferative, MTT, 48 h exposure, read-out: IC50 MDA-MB-231): 0.81 ± 0.11 µM; IC50 ([3]; Homo sapiens, SMMC-7721, antiproliferative, MTT, 48 h exposure): 1.05 ± 0.09 µM; IC50 ([4]; Homo sapiens, SGC-7901, antiproliferative, MTT, 48 h exposure): 0.92 ± 0.08 µM; IC50 ([5]; MGC-803, antiproliferative, MTT, 48 h exposure): 0.67 ± 0.08 µM |
| O=S(=O)(F)/C=C/c1ccccc1 [Compound 1] | 5.21 ± 0.39 | 8.67 ± 0.61 | 1970 ± 200 | 1450 ± 170 | 2.41 ± 0.51 |  |  |
| O=S(=O)(F)/C=C/c1ccc(-c2ccccc2)cc1 [Compound 5] | 5.84 ± 0.33 | 8.39 ± 0.89 | 1330 ± 150 | 2000 ± 250 | 0.71 ± 0.28 | 4.05 ± 0.2 | IC50 ([4]; Homo sapiens, SGC-7901, 48 h): 32.9 ± 1.85 µM; telomerase potency relative to positive control staurosporine ([8]; ratio of telomerase IC50 values vs staurosporine): 12 times |
| O=S(=O)(F)/C=C/c1ccc(F)cc1 [Compound 6] | 5.99 ± 0.49 |  |  |  | 2.98 ± 0.59 | 15.9 ± 0.35 | IC50 ([2]; read-out: IC50 MDA-MB-231, antiproliferative, MTT, 48 h exposure): 9.2 ± 1.27 µM; IC50 ([5]; MGC-803, 48 h): 44.2 ± 1.25 µM |
| O=S(=O)(F)/C=C/c1ccc(Cl)cc1 [Compound 7] | 9.84 ± 0.78 | 12.3 ± 0.64 |  |  | 3.02 ± 0.44 | 13.3 ± 0.39 | IC50 ([5]; MGC-803, 48 h): 12.9 ± 0.3 µM |
| O=S(=O)(F)/C=C/c1ccc(Br)cc1 [Compound 8] | 9.12 ± 0.82 | 17.5 ± 1.77 |  |  | 4.33 ± 0.77 | 10.7 ± 0.8 | IC50 ([5]; MGC-803, 48 h): 17.2 ± 0.41 µM |
| O=Cc1ccc(/C=C/S(=O)(=O)F)cc1 [Compound 15] | 13.1 ± 0.7 | 3.64 ± 0.22 | 2110 ± 190 | 2500 ± 220 | 1.87 ± 0.41 |  |  |
| CC(=O)c1cccc(/C=C/S(=O)(=O)F)c1 [Compound 21] |  |  |  |  |  |  | IC50 [1, 12]: 16.6 ± 0.91 µM; IC50 [2, 13]: 23.1 ± 2.78 µM; IC50 [3, 14]: 11.8 ± 0.6 µM; IC50 [4, 14]: 30.8 ± 2 µM |
| CC(=O)c1ccccc1/C=C/S(=O)(=O)F [Compound 25] |  |  | 2450 ± 250 | 2800 ± 310 |  |  | IC50 inhibitory activity against telomerase ([8]; TRAP-PCR-ELISA, A375 cells, 24 h treatment): no |
| O=S(=O)(F)/C=C/c1ccc2ccccc2c1 [Compound 31] | ~3 | 24.1 ± 1.18 | 1410 ± 100 | 1650 ± 180 | 0.81 ± 0.07 | 33.5 ± 0.88 | IC50 ([1]; read-out: IC50 A375, antiproliferative, MTT, 48 h exposure): 3.49 ± 0.2 µM |
| O=S(=O)(F)/C=C/c1cccs1 [Compound 40] |  |  |  |  |  |  | IC50 [1, 12]: 6.73 ± 0.5 µM; IC50 [2, 13]: 18.3 ± 0.8 µM; IC50 [3, 14]: 35.6 ± 0.55 µM; IC50 [4, 14]: 51.3 ± 2.55 µM |
| O=S(=O)(F)/C=C/c1cccc2c1sc1ccccc12 [Compound 43] |  |  |  |  |  |  | IC50 [1, 12]: 38.6 ± 0.61 µM; IC50 [2, 13]: 44 ± 1.2 µM; IC50 [3, 14]: 34.5 ± 0.77 µM; IC50 [4, 14]: 24.8 ± 0.89 µM |
| Cc1ccc(S(=O)(=O)n2c3ccccc3c3cc(/C=C/S(=O)(=O)F)ccc32)cc1 [Compound 46] | 1.25 ± 0.07 |  | 2060 ± 180 | 1820 ± 110 |  | 5.37 ± 0.11 | IC50 ([8]; read-out: IC50 inhibitory activity against telomerase, TRAP-PCR-ELISA, A375 cells, 24 h treatment): 1.12 ± 0.27 µM |
| O=S(=O)(F)/C=C/C=C/c1ccccc1 [Compound 48] | 27.4 ± 1.5 | 39.7 ± 1.39 |  |  | 40.2 ± 1.3 | 51 ± 1.91 | IC50 ([4]; Homo sapiens, SGC-7901, 48 h): 49.1 ± 1.39 µM |
| Cc1ccc(/C=C/C=C/S(=O)(=O)F)cc1 [Compound 49] |  |  |  |  |  |  | IC50 [1, 12]: 32.8 ± 1.44 µM; IC50 [2, 13]: 35.2 ± 1.4 µM; IC50 [3, 14]: 48.5 ± 1.65 µM; IC50 [4, 14]: 49.79 ± 0.47 µM |
